The source of these data is ChEMBL document CHEMBL4431353, “Optimization of a Series of Bivalent Triazolopyridazine Based Bromodomain and Extraterminal Inhibitors: The Discovery of (3R)-4-[2-[4-[1-(3-Methoxy-[1,2,4]triazolo[4,3-b]pyridazin-6-yl)-4-piperidyl]phenoxy]ethyl]-1,3-dimethyl-piperazin-2-one (AZD5153)” (J Med Chem, 2016).

Molecules are shown by their SMILES. In brackets after ≈: the same amount, converted by molar mass.

For series [1], the target named is T1, Bromodomain-containing protein 4 (Homo sapiens, UniProt O60885). As to the kind of experiment: Inhibition of BRD4 in human MCF7 cells assessed as down regulation of ERalpha after 18 to 24 hrs by Hoechst staining based cellomics arrayscan analysis. It is filed as cell-based.
Series [2] can be described thus: Thermodynamic solubility of compound in pH 7.4 solution. It is filed as physicochemical. Particulars: buffer, read-out: Therm_solubility.
Series [3] has as its target T1, Bromodomain-containing protein 4. As to the kind of experiment: Inhibition of BRD4 in human MM1S cells assessed as down regulation of c-Myc incubated for 16 hrs by flow cytometry. It is filed as cell-based. In general terms: In flow cytometry, cells or beads pass a laser one at a time.
In series [4] the target is Bromodomain-containing protein 4 (Homo sapiens, UniProt O60885, N433A).
For series [5], the system named is MM1.S. Nature of the series: Growth inhibition of human MM1S cells after 72 hrs by alamar blue assay. It is filed as functional. On the technique in general: Alamar Blue is a resazurin reagent that responds to reducing activity.
Series [6] in a line: Intrinsic clearance in human hepatocytes assessed per million cells. It is filed as ADME, cell-based, Hepatocyte. Particulars: read-out: CLH.
Series [7] deals with Bromodomain-containing protein 4 (Homo sapiens, UniProt O60885, N140A).
Series [8] in a line: Lipophilicity, log D of compound at pH 7.4. Conditions: buffer. It is filed as physicochemical.
Series [9] has as its target T1, Bromodomain-containing protein 4. Nature of the series: Displacement of Alexa647-labeled JQ1 derivative from wild type BRD4 tandem domain (44 to 460 residues) (unknown origin) incubated for 1 hr by fluorescence polarization assay.
Series [10] has the same target. As to the kind of experiment: Inhibition of BRD4 in human LNCAP cells assessed as down regulation of nuclear AR level by immunofluorescence assay. It is filed as cell-based.
Series [11] is described as follows: Oral bioavailability in rat. It is filed as ADME, organism-based. Particulars: in vivo.
Series [12] is described as follows: Intrinsic clearance in rat hepatocytes assessed per million cells. It is filed as ADME, cell-based, Hepatocyte. Conditions: read-out: CLH.
The nature of series [13]: Unbound fraction in rat plasma. It is filed as ADME, cell-free.
Series [14] in a line: Unbound fraction in human plasma. It is filed as ADME, cell-free.
Series [15] can be described thus: Unbound fraction in dog plasma. It is filed as ADME, cell-free, Canis lupus familiaris.
Series [16] can be described thus: Plasma clearance in rat. It is filed as ADME.
The nature of series [17]: Intrinsic clearance in dog hepatocytes assessed per million cells. It is filed as ADME, cell-based, Canis lupus familiaris, Hepatocyte. Particulars: read-out: CLH.
Series [18] in a line: Volume of distribution at steady state in rat. It is filed as ADME. Particulars: in vivo, read-out: Vdss.

A word on the IC50: it is the midpoint of a concentration-inhibition curve. The Ki is the equilibrium dissociation constant of an inhibitor or competing ligand from its target. Low values mean a stronger hold on the target, high ones a looser hold on the target. What is called GI50 is the concentration that inhibits growth by half. Broadly, the logD is the decadic logarithm of the distribution of all forms, ionised or not, between an organic phase and buffer at a given pH. Turning to `Cc1nnc2ccc(N3CCC(c4ccc(OCCN5CCN(C)C(=O)[C@H]5C)cc4)CC3)nn12`, the IC50 was 39.8 nM in series [1] and 25.1 nM in [3]. The solubility thermodynamic in [2] was 670 µM (≈ 311 µg/mL). Besides, the Ki in series [4] is 251 nM; in [7], 200 nM; in series [9] it was 15.8 nM. The GI50 in [5] was 5.01 nM. Also, the hepatocyte CLint in series [6] stood at 7.2 µL/min/1e6 cells. The compound further displayed a logD in [8] of 2.4.
For `CSc1nnc2ccc(N3CCC(c4ccc(OCCN5CCN(C)C(=O)[C@H]5C)cc4)CC3)nn12`, the values for the IC50 in series [1], in series [3] and in series [10] were 31.6 nM, 20 nM and 25.1 nM, respectively. Also, in [2], the solubility thermodynamic was 660 µM (≈ 327 µg/mL). The Ki was 158 nM in series [4], 126 nM in [7] and 12.6 nM in [9]. In [6], the hepatocyte CLint was 21 µL/min/1e6 cells. Further, the log distribution coefficient (logD) in [8] was 2.9.
On to `COc1nnc2ccc(N3CCC(c4ccc(OCCN5C[C@@H](C)N(C(C)=O)[C@@H](C)C5)cc4)CC3)nn12`, for which the half-maximal inhibitory concentration (IC50) in series [1] was 39.8 nM. The solubility thermodynamic in [2] amounted to 280 µM (≈ 142 µg/mL). For the same compound, the values for the Ki in [4], in [7] and in [9] were 50.1 nM, 158 nM and 5.01 nM, respectively. Further, the hepatocyte CLint in [6] is 48 µL/min/1e6 cells. The compound also returned a logD in series [8] of 3.4.
On to `C[C@@H]1C(=O)N(C)CCN1CCOc1ccc(C2CCN(c3ccc4nnc(Cl)n4n3)CC2)cc1`, for which the IC50 in series [1] was 39.8 nM; in series [3] it was 79.4 nM; in [10], 25.1 nM. Also, the solubility thermodynamic in [2] worked out at 63 µM (≈ 30.5 µg/mL). Further, the inhibition constant Ki was 200 nM in series [4], 316 nM in series [7] and 12.6 nM in series [9]. In series [5], this compound had a GI50 of 19.9 nM. Besides, in series [6], the hepatocyte CLint is 24 µL/min/1e6 cells. This compound also returned a logD in series [8] of 3.1.
Take `COc1nnc2ccc(N3CCC(c4ccc(OCCN5[C@H](C)CN(C)C(=O)[C@H]5C)cc4)CC3)nn12`: the results for the IC50 in [1] and in [3] were 20 nM and 12.6 nM, respectively. Also, in series [2], the solubility thermodynamic is 750 µM (≈ 370 µg/mL). Further, the Ki in series [4] was 126 nM; in [7] it was 251 nM; in series [9], 7.94 nM. In addition, in series [5], halving of growth (GI50) required 6.31 nM. Besides, the hepatocyte CLint in [6] came to 80 µL/min/1e6 cells. In series [8], this compound showed a logD of 2.3.
Turning to `COc1nnc2ccc(N3CCC(c4ccc(N5CCC(N6CCN(C)C(=O)[C@H]6C)CC5)cc4)CC3)nn12`, in series [1], the IC50 was 158 nM. The solubility thermodynamic in series [2] was found to be 760 µM (≈ 394 µg/mL). For the same compound, the Ki is 158 nM in series [4], 316 nM in series [7] and 50.1 nM in [9]. Also, the hepatocyte CLint in [6] turned out to be 2.7 µL/min/1e6 cells. Moreover, the pH-dependent lipophilicity (logD) in series [8] stood at 2.
Take `C[C@@H]1C(=O)N(C)CCN1CCOc1ccc(C2CCN(c3ccc4nncn4n3)CC2)cc1`: the IC50 in series [1] was over 3160 nM; in series [3], 1260 nM; in series [10] it was 1580 nM. Further, in [2], the solubility thermodynamic came to 1000 µM (≈ 450 µg/mL). For the same compound, the inhibition constant Ki was 6310 nM in series [4], 2510 nM in series [7] and over 1000 nM in series [9]. Moreover, the hepatocyte CLint in [6] was determined as 180 µL/min/1e6 cells. In addition, the logD in series [8] turned out to be 1.9.
`COc1nnc2ccc(N3CCC(c4ccc(OCCN5CCN(C)C(=O)[C@@H]5C)cc4)CC3)nn12`: the figures for the IC50 in series [1] and in series [3] were 316 nM and 79.4 nM, respectively. For the same compound, the solubility thermodynamic in series [2] worked out at 900 µM (≈ 432 µg/mL). Also, the inhibition constant Ki is 251 nM in series [4], 1000 nM in series [7] and 126 nM in series [9]. Further, the hepatocyte CLint in series [6] is under 1.4 µL/min/1e6 cells. The same compound came in with a pH-dependent lipophilicity (logD) in series [8] of 2.2.
In the case of `COc1nnc2ccc(N3CCC(c4ccc(N5CC(N6CCN(C)C(=O)[C@H]6C)C5)cc4)CC3)nn12`, in [1], the IC50 is 794 nM. Besides, the solubility thermodynamic in [2] is 870 µM (≈ 427 µg/mL). Moreover, the Ki in series [4] was 200 nM; in [7], 398 nM; in [9], 63.1 nM. Moreover, the hepatocyte CLint in series [6] was under 1.2 µL/min/1e6 cells. Moreover, the logD in [8] was found to be 1.7.
For the compound `C[C@@H]1C(=O)N(C)CCN1CCOc1ccc(C2CCN(c3ccc4nnc(C(F)(F)F)n4n3)CC2)cc1`, the IC50 is 25.1 nM in [1], 10 nM in series [3] and 39.8 nM in [10]. For the same compound, the solubility thermodynamic in series [2] worked out at 63 µM (≈ 32.6 µg/mL). In addition, the Ki in [4] is 398 nM; in series [7], 63.1 nM; in series [9] it was 7.94 nM. Further, the GI50 in series [5] was 5.01 nM. Moreover, in series [6], the hepatocyte CLint came to 70 µL/min/1e6 cells. The same compound came in with a logD in series [8] of 3.3 to 4.2.
With `CN1CCN(CCOc2ccc(C3CCN(c4ccc5nnc(C(F)(F)F)n5n4)CC3)cc2)CC1=O`, the IC50 is 501 nM in series [1] and 316 nM in series [10]. Also, the solubility thermodynamic in [2] came out at 65 µM (≈ 32.7 µg/mL). In addition, the Ki in series [4] is 316 nM; in series [7] it was 1000 nM; in series [9], 200 nM. The hepatocyte CLint in series [6] is 18 µL/min/1e6 cells. In [8], this compound gave a logD of 3.
One may read the bioavailability as dose-corrected exposure relative to a reference, in per cent. A low value points to poor availability. The fraction unbound is free concentration divided by total concentration. The low end stands for extensive binding, the high end for weak binding. The clearance is a measure of how efficiently the substance is removed, as volume per time. Low values mean inefficient removal, high ones efficient removal. As to `C[C@@H]1C(=O)N(C)CCN1CCOc1ccc(C2CCN(c3ccc4nnc(N(C)C)n4n3)CC2)cc1`, the bioavailability in [11] was 42%. Moreover, the figures for the hepatocyte CLint in [12], in [17] and in series [6] were 13 µL/min/1e6 cells, 18 µL/min/1e6 cells and 4 to 4.4 µL/min/1e6 cells, respectively. The unbound share (fraction unbound) is 0.04 in series [13], 0.16 in series [14] and 0.09 in [15]. Further, the IC50 is 63.1 nM in [1], 15.8 nM in [3] and 25.1 nM in series [10]. Moreover, the solubility thermodynamic in series [2] lay in the range of 1600 to 1680 µM (≈ 788 to 828 µg/mL). Moreover, the Ki in [4] was 316 nM; in series [7] it was 316 nM; in [9], 12.6 nM. The compound also gave a GI50 in [5] of 3.16 nM. Besides, the clearance in series [16] came out at 6 mL/min/kg. In addition, the Vd in [18] is 0.4 L/kg. The logD in series [8] was 2.4.
`COc1nnc2ccc(N3CCC(c4ccc(OCCCCN5CCN(C)C(=O)[C@H]5C)cc4)CC3)nn12`: the IC50 in series [1] is 20 nM. In addition, the solubility thermodynamic in series [2] came to 470 µM (≈ 239 µg/mL). Further, the results for the Ki in [4], in [7] and in series [9] were 63.1 nM, 100 nM and 6.31 nM, respectively. For the same compound, in [6], the hepatocyte CLint was 12 µL/min/1e6 cells. In series [8], this compound registered a logD of 2.8.
With `CN1CCN(CCOc2ccc(C3CCN(c4ccc5nnc(C(F)(F)F)n5n4)CC3)cc2)C(=O)C1`, the IC50 in series [1] was 1000 nM. Further, in [2], the solubility thermodynamic was determined as 52 µM (≈ 26.2 µg/mL). Also, the Ki in series [4] was 398 nM; in series [7], 7940 nM; in series [9] it was 2510 nM. For the same compound, in series [6], the hepatocyte CLint was 26 µL/min/1e6 cells. The same compound showed a log distribution coefficient (logD) in series [8] of 3.1.
For the compound `COc1nnc2ccc(N3CCC(c4ccc(OCCCN5CCN(C)C(=O)[C@H]5C)cc4)CC3)nn12`, the figures for the IC50 in series [1] and in series [3] were 20 nM and 3.16 nM, respectively. In series [2], the solubility thermodynamic is over 1000 µM. The Ki in [4] was 79.4 nM; in series [7], 63.1 nM; in [9], 3.98 nM. In series [5], this compound had a GI50 of under 1.58 nM. The hepatocyte CLint in series [6] worked out at 5.1 µL/min/1e6 cells. This compound also came in with a logD in [8] of 2.4.
